# ChEMBL document CHEMBL1201862, “PubChem BioAssay data set” (2004)
# The source made the active and inactive calls. Rule as the data show it, for most assays here: actives have a measured EC50 and inactives only a lower limit.
# Experiments:
# [1] = molecular target: Glyceraldehyde-3-phosphate dehydrogenase (Homo sapiens, UniProt P04406)
# [2] = P. falciparum Dd2 growth inhibitors, dose response, SYBR Green, cherry-picked samples (AID 1159567); format: functional, cell-based
# [3] = luciferase reporter signal suppression in cells – H4 neuroglioma cells, luminescence, dose response (AID 1990); format: functional, cell-based
# [4] = Luminescence Cell-Based Dose Response HTS to Identify Inhibitors of 5'UTR Stem-Loop Driven Prion Protein mRNA Translation in H4 Neuroglioblastoma Cells. [Related pubchem assays: 1827 (Project Summary), 1813 (Primary HTS)]; format: functional
# [5] = alpha-synuclein stem-loop luciferase translation blockers – H4 neuroglioma cells, luminescence, confirmation (AID 1988); format: functional, cell-based
# [6] = NIH3T3 cell viability loss – ATP luminescence, mouse fibroblasts, counter-screen, dose response (AID 2010); format: functional, cell-based;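 also: cells exposed to compound for about 90 hours before reading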
# [7] = Trypanosoma cruzi growth suppression in host cells – NIH3T3 host cells, beta-gal luminescence, confirmation (AID 2044); format: functional, cell-based;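 also: intracellular parasites grown in NIH/3T3 mouse fibroblasts as host cells; luminescent beta-galactosidase reporter signal from transgenic T. cruzi replicating inside host cells; inhibitors lower the luminescence signal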
# [8] = molecular target: T1, Heat shock factor protein 1 (Mus musculus, UniProt P38532); assay: decrease of HSF1-responsive luciferase luminescence – cell-based, NIH3T3, dose retest, confirmation (AID 2382); format: functional;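 also: NIH3T3 fibroblasts with HSF1-driven luciferase reporter stressed by proteasome inhibitor MG132; luminescence from HSF1-driven luciferase expression after 8 hours of MG132 stress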
# T1 sequence (P38532 whole entry): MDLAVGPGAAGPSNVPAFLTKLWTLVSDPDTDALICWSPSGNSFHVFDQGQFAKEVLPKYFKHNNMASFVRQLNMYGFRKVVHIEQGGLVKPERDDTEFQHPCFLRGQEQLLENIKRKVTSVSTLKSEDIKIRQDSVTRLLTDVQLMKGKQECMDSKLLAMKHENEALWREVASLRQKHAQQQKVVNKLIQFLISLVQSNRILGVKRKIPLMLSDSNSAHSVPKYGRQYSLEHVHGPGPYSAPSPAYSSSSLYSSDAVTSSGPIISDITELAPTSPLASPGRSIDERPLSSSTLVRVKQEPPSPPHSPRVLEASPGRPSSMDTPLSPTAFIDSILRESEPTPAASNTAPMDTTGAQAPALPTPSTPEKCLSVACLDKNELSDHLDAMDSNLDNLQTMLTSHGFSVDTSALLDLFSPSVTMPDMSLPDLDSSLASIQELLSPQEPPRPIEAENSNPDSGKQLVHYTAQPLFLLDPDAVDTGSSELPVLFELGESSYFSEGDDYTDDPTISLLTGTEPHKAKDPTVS
# [9] = molecular target: T2, Corticotropin-releasing factor receptor 2/Corticotropin-releasing factor-binding protein (Homo sapiens, UniProt P24387+Q13324); assay: activators of CRF receptor 2 with binding protein – uHTS hits, confirmation (AID 602473); format: functional; settings: read-out: EC50_Mean
# T2 sequence (Q13324 whole entry): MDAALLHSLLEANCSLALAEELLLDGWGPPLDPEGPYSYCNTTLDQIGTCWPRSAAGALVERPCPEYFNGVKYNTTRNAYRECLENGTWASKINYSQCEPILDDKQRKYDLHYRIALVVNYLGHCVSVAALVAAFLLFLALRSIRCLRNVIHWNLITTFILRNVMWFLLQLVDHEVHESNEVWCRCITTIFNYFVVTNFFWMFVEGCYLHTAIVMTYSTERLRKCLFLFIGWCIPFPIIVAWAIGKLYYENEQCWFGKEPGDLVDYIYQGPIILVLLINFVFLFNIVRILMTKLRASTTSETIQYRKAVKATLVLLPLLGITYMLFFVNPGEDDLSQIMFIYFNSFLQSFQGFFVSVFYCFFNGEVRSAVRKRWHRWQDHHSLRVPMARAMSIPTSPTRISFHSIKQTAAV
# T2 sequence (P24387 whole entry): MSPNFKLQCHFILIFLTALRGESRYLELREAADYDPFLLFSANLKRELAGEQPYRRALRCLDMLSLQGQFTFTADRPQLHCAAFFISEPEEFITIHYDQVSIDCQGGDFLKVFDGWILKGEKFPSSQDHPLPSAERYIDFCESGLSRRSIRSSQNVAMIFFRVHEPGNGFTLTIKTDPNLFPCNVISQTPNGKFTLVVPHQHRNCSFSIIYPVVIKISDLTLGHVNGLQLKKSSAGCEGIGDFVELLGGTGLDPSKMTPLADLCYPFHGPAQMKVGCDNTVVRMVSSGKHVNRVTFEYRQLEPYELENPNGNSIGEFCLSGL
# [10] = molecular target: T2, Corticotropin-releasing factor receptor 2/Corticotropin-releasing factor-binding protein; assay: Dose Response confirmation of uHTS hits for small molecule antagonists of the CRF-binding protein and CRF-R2 receptor complex.; format: functional; settings: read-out: IC50_Mean
# [11] = fluconazole-exposed Candida albicans growth modulators – fluorescence, retest, confirmation (AID 2467); format: functional, cell-based
# [12] = NIH-3T3 fibroblast cytotoxicity, dose response, cytotoxicity control, cell-based, fluorescence, Alamar Blue, secondary assay (AID 2327); format: functional;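 also: NIH-3T3 mouse fibroblasts cultured with fluconazole at 8 µg/mL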
# P388/ADR = assay: cells; format: functional; settings: Mus musculus
# SN12K1 = assay: cells; format: functional; settings: Homo sapiens
# [13] = Luminescence Cell-Based Dose Response HTS to Identify Activators of Luciferase Translation or Activity in H4 […] Cells. [Related pubchem assays: 1829 (Project Summary), 1814 (Primary HTS)]; format: functional
# H4 = assay: Luminescence Cell-Based Dose Response HTS to Identify Activators of 5'UTR Stem-Loop Driven Prion Protein mRNA Translation in H4 Neuroglioblastoma Cells. [Related pubchem assays: 1829 (Project Summary), 1814 (Primary HTS)]; format: functional; settings: Homo sapiens
# Paired box protein Pax-8 = Paired box protein Pax-8 (Homo sapiens, UniProt Q06710); assay: PAX8 transcriptional activity inhibition in RMG-I – RMG-I cells, luciferase, cherry-pick, dose response (AID 687027); format: functional, cell-based;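 also: luciferase reporter driven by Pax8 target thyroperoxidase promoter measured by SteadyGlo luminescence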
# Paired box protein Pax-8, sequence (Q06710 whole entry): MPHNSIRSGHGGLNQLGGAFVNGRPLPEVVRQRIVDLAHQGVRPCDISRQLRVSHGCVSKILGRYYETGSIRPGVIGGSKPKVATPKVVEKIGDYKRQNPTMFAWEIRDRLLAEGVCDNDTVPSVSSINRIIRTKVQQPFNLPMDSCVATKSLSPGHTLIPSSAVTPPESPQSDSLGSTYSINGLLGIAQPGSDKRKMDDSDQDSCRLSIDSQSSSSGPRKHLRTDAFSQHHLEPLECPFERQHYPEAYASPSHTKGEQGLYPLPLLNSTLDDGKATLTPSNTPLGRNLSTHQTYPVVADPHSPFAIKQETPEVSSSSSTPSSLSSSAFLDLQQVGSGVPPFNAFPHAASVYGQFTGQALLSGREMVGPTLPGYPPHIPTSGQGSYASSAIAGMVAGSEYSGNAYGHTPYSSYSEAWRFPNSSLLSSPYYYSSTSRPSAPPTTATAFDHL
# Streptococcus = assay: GAS UMAA2166 growth inhibition – luminescence, BacTiterGlo, counter-screen for streptokinase expression inhibitor project, dose response (AID 1915); format: functional, organism-based;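 also: potency for reduction of bacterial viability or growth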
# Streptokinase A = molecular target: T3, Streptokinase A (Streptococcus pyogenes serotype M1, UniProt P10520); assay: viability-normalized secreted streptokinase activity reduction – plasminogen activation absorbance, OD405, dose response (AID 1914); format: functional, Streptococcus pyogenes M1 GAS;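 also: secreted streptokinase activity via plasminogen activation per viability signal from cell pellet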
# T3 sequence (P10520 whole entry): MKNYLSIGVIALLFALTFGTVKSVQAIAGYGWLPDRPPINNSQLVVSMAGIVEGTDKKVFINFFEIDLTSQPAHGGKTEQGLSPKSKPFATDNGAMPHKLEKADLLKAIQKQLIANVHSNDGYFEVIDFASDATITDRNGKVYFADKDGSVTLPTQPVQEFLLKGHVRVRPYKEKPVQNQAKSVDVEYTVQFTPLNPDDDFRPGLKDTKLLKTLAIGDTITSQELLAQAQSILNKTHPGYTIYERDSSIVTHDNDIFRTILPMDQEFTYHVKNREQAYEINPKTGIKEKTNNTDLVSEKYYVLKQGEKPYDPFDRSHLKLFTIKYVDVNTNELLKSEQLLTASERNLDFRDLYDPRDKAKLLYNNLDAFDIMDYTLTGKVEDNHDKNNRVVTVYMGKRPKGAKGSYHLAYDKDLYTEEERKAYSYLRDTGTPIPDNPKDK
# [14] = test system: Streptococcus sp. 'group A'; assay: Streptococcus pyogenes SK(-)GAS viability under kanamycin – luminescence, BacTiterGlo, confirmation, counter-screen for streptokinase expression inhibitor project, dose response (AID 1900); format: functional, organism-based
# Glyceraldehyde-3-phosphate dehydrogenase, sequence (P04406 whole entry): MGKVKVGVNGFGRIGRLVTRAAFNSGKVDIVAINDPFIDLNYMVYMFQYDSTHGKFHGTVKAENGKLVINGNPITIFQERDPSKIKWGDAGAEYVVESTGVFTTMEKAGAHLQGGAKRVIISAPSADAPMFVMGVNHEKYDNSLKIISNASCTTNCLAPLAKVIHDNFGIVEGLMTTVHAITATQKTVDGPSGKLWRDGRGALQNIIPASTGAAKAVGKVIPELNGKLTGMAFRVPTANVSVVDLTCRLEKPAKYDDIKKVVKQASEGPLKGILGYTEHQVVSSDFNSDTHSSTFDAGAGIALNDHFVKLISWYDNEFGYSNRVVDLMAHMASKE
smiles,measurement,setting,value
Cc1cc(=O)oc2cc(OCC(=O)Nc3ccc(O)c(C(=O)O)c3)ccc12,IC50,[1],> 100 µM (not active)
O=S(=O)(Cc1ccccc1)N1[C@H](CO)[C@@H](c2ccccc2)C12CN(CCC(F)(F)F)C2,AC50,[2],5.09 µM (active)
CN(C)CC(=O)N1[C@H](CO)[C@H](c2ccc(C#CC3CCCCC3)cc2)[C@@H]1C#N,AC50,[2],8.31 µM (active)
Cc1cccc2c1Sc1ccc(Cl)cc1CC2N1CCNCC1 (centres undefined),EC50,[3],> 120 µM (not active)
same,EC50,[4],116 µM (active)
same,EC50,[5],11.7 µM (active)
same,EC50,[6],12.9 µM (active)
same,EC50,[7],3.13 µM (active)
CO[C@@H]1CN(C)C(=O)c2cc(NC(=O)Nc3ccc(C(F)(F)F)cc3)ccc2OC[C@@H](C)NC[C@@H]1C,AC50,[2],5.92 µM (active)
O=C(c1cnccn1)N1CC(=O)N2[C@@H](CO)[C@H](c3ccc(C#CCc4ccccc4)cc3)[C@@H]2C1,AC50,[2],5.99 µM (active)
CN1CCc2c(sc3c2C(=O)NC(c2ccc(-c4ccc(Cl)cc4)o2)N3)C1 (centres undefined),EC50,[8],> 195 µM (not active)
O=C(Nc1cc2nn(-c3ccccc3)nc2cc1Cl)c1ccc([N+](=O)[O-])o1,IC50,[1],> 100 µM (not active)
COc1cc2ccccc2cc1C(=O)N/N=C/c1ccc2c(c1)OCO2,EC50,[9],> 53 µM (inactive)
same,IC50,[10],> 47.1 µM (inactive)
O=C(NCc1ccccn1)c1ccc(Cn2c(=S)[nH]c3ccc(Br)cc3c2=O)cc1,EC50,[3],> 120 µM (not active)
same,EC50,[4],> 120 µM (not active)
same,EC50,[5],> 120 µM (not active)
COc1cccc(N2C(=O)C(Cl)=C(N3CCN[C@H](C)C3)C2=O)c1,IC50,[1],> 50 µM (inconclusive)
CCC(=O)Nc1ccc(NC(=O)c2oc3ccccc3c2C)cc1,EC50,[9],> 53 µM (inactive)
same,IC50,[10],> 47.1 µM (inactive)
Cc1cc2c(cc(C(=O)OCC(=O)NCc3ccco3)n2C)s1,EC50,[11],> 38 µM (not active)
same,EC50,[12],22.4 µM (active)
C[C@H]1CN([C@@H](C)CO)C(=O)c2ccccc2-c2ccccc2CO[C@H]1CN(C)Cc1ccc(Oc2ccccc2)cc1,AC50,[2],4.26 µM (active)
O=C(NCCCl)O/N=C/c1cccnc1,GI50,P388/ADR,52.5 µM (inactive)
same,GI50,SN12K1,> 100 µM (inactive)
O=C(Cc1ccsc1)Nc1ccc(S(=O)(=O)C(F)F)cc1,EC50,[8],> 195 µM (not active)
Cc1cc(C(=O)CN2CCC(C)CC2)c(C)n1-c1ccccc1F,EC50,[8],< 0.16 µM (active)
same,EC50,[6],> 60 µM (not active)
same,EC50,[7],1.18 µM (active)
COc1cccc(C2Nc3ccccc3C(=O)N2Cc2ccccc2)c1 (centres undefined),EC50,[3],> 120 µM (not active)
same,EC50,[4],> 120 µM (not active)
same,EC50,[5],> 120 µM (not active)
Cc1nc(NC(=O)C2CC2)sc1C(=O)Nc1ccccc1Cl,EC50,[13],11.6 µM (active)
same,EC50,H4,9.56 µM (active)
COc1ccc(F)cc1-c1cc(NC=O)c2ncc(-c3cc(OC)c(OC)c(OC)c3)n2c1,AC50,Paired box protein Pax-8,3.49 µM (active)
COc1cc(C(=O)NCC(c2cccs2)N2CCOCC2)ccc1OCc1ccc(Cl)cc1 (centres undefined),AC50,Paired box protein Pax-8,22 µM (active)
CC(=O)N1N=C(c2cccc([N+](=O)[O-])c2)CC1c1ccc(Br)cc1 (centres undefined),IC50,[1],> 100 µM (not active)
CCc1cc[n+](CC(=O)Nc2ccc(Cl)cc2Cl)cc1,EC50,[8],> 195 µM (not active)
C=CCOc1ccn(C)c(=O)n1,EC50,[8],> 195 µM (not active)
C#CCSc1nc(C)cc(C(=O)OCC)c1C#N,EC50,[9],> 53 µM (inactive)
same,IC50,[10],> 47.1 µM (inactive)
COc1ccc(S(=O)(=O)Nc2ccc3c(c2)C(=O)N([C@@H](C)CO)C[C@H](C)[C@H](CN(C)Cc2ccc(C(F)(F)F)cc2)OCCCC[C@@H](C)O3)cc1,AC50,Paired box protein Pax-8,7.68 µM (active)
CC(C)[C@H](NC(=O)OC(C)(C)C)C(=O)N/N=C/c1ccc2nccnc2c1,EC50,[9],> 53 µM (inactive)
same,IC50,[10],> 47.1 µM (inactive)
CCOc1ccc(CNC(=O)c2ccc3nc(N4CCOCC4)sc3c2)cc1,EC50,[8],> 195 µM (not active)
N#Cc1ccc(CSC2=NCCN2)cc1,EC50,[9],> 53 µM (inactive)
same,IC50,[10],> 47.1 µM (inactive)
N#C[C@@H]1[C@@H](c2ccccc2-c2ccccc2F)[C@@H](CO)N1C(=O)C1CCOCC1,AC50,[2],24.2 µM (active)
C[C@H](CO)N1C[C@H](C)[C@H](CN(C)C(=O)Nc2ccc(N3CCCCC3)cc2)OCc2cnnn2CCCC1=O,AC50,[2],> 39 µM (inactive)
CC1CCN(S(=O)(=O)c2ccc3c(c2)NC(=O)CS3)CC1,EC50,[9],> 53 µM (inactive)
same,IC50,[10],> 47.1 µM (inactive)
CCOC(=O)C1CCN(C(=O)c2ccc3c(=O)n4nc(Nc5cc(C)ccc5C)sc4nc3c2)CC1,EC50,[11],2.55 µM (active)
same,EC50,Streptococcus,37.4 µM (active)
same,EC50,[12],> 150 µM (inactive)
same,EC50,Streptokinase A,> 150 µM (not active)
same,EC50,[14],9.44 µM (active)
O=c1cccc2n1Cc1cc3ccccc3nc1-2,EC50,[13],38.3 µM (active)
same,EC50,H4,37.6 µM (active)
CC(C)C(=O)Nc1cccc(C(=O)Nc2ccccc2C(=O)O)c1,EC50,[3],47.8 µM (active)
same,EC50,[4],> 120 µM (not active)
same,EC50,[5],> 120 µM (not active)
CC(=O)C1=C(O)C(=O)N(Cc2cccnc2)C1c1ccc(O)cc1 (centres undefined),EC50,[8],> 195 µM (not active)
COc1cccc(N2CCN(C3=C(Cl)C(=O)N(c4ccnc(Cl)c4)C3=O)CC2)c1,IC50,[1],> 50 µM (inconclusive)
Cc1ccc(S(=O)(=O)Nc2ccc3c(c2)C(=O)N([C@H](C)CO)C[C@H](C)[C@H](CN(C)C(=O)c2ccccc2)OCCCC[C@H](C)O3)cc1,AC50,Paired box protein Pax-8,19.4 µM (active)
CNC(=S)N(CCc1c(C)[nH]c2ccc(C)cc12)Cc1cc(OC)c(OC)c(OC)c1,EC50,[8],> 195 µM (not active)
Cc1nnc(N/N=C/c2cc(C)n(-c3ccc(F)cc3)c2C)n1N,EC50,[8],29.7 µM (active)
COCCNC(=O)C(OC(=O)c1cccs1)c1ccccc1 (centres undefined),EC50,[8],> 195 µM (not active)
COc1ccc(-n2nc(C)cc2N)cc1,EC50,[8],> 195 µM (not active)
CN(c1ccccc1)c1ncccn1,EC50,[8],> 195 µM (not active)
